Experimental data published in ChEMBL document CHEMBL3044831, “Docking study, in vitro anticancer screening and radiosensitizing evaluation of some new fluorine-containing quinoline and pyrimidoquinoline derivatives bearing a sulfonamide moiety” (Med Chem Res, 2011).

Experiments:
MCF7 [1] = assay: Cytotoxicity against Homo sapiens (human) MCF-7 cells assessed as surviving fraction at 50 uM after 48 hr by SRB assay relative to control; format: functional
MCF7 [2] = assay: Cytotoxicity against Homo sapiens (human) MCF-7 cells after 48 hr by SRB assay relative to control; format: functional, cell-based; conditions: MCF7, 48 h
MCF7 [3] = assay: Cytotoxicity against Homo sapiens (human) MCF-7 cells assessed as surviving fraction at 10 uM after 48 hr by SRB assay relative to control; format: functional
MCF7 [4] = assay: Cytotoxicity against Homo sapiens (human) MCF7 cells assessed as surviving fraction at 25 uM after 48 hr by SRB assay relative to control; format: functional
MCF7 [5] = assay: Cytotoxicity against Homo sapiens (human) MCF-7 cells assessed as surviving fraction at 100 uM after 48 hr by SRB assay relative to control; format: functional
MCF7 [6] = assay: Radiosensitizing activity against Homo sapiens (human) gamma-irradiated MCF-7 cells assessed as surviving fraction at 50 uM after 48 hr by SRB assay (reference value: 0.927 +/- 0.02); format: functional
MCF7 [7] = assay: Radiosensitizing activity against Homo sapiens (human) gamma-irradiated MCF-7 cells assessed as surviving fraction at 25 uM after 48 hr by SRB assay (reference value: 0.927 +/- 0.02); format: functional
MCF7 [8] = assay: Radiosensitizing activity against Homo sapiens (human) gamma-irradiated MCF-7 cells assessed as surviving fraction at 10 uM after 48 hr by SRB assay (reference value: 0.927 +/- 0.02); format: functional
MCF7 [9] = assay: Potentiation of gamma-irradiation-induced cytotoxicity against Homo sapiens (human) MCF-7 cells after 48 hr by SRB assay; format: functional, cell-based; conditions: MCF7, light or radiation study
MCF7 [10] = assay: Radiosensitizing activity against Homo sapiens (human) gamma-irradiated MCF-7 cells assessed as surviving fraction at 100 uM after 48 hr by SRB assay (reference value: 0.927 +/- 0.02); format: functional

Row | SMILES | fold change (FC) (MCF7 [1]) | IC50 (MCF7 [2]) [µM] | fold change (FC) (MCF7 [3]) | fold change (FC) (MCF7 [4]) | fold change (surviving fraction) (MCF7 [5]) | fold change (FC) (MCF7 [6]) | fold change (FC) (MCF7 [7]) | fold change (FC) (MCF7 [8]) | IC50 (MCF7 [9]) [µM] | fold change (FC) (MCF7 [10])
1 | CC1(C)CC(=O)C2=C(C1)N(c1ccc(S(N)(=O)=O)cc1)c1ncnc(N=C=S)c1C2c1ccc(F)cc1 (stereo not given) | 0.487 | 85.6 | 0.922 | 0.755 | 0.534 | – | – | – | – | –
2 | CC(=O)NC1=C(C#N)C(c2ccc(F)cc2)C2=C(CC(C)(C)CC2=O)N1c1ccc(S(N)(=O)=O)cc1 (stereo not given) | 0.598 | 85.9 | 0.882 | 0.763 | 0.483 | – | – | – | – | –
3 | CC1(C)CC(=O)C2=C(C1)N(c1ccc(S(N)(=O)=O)cc1)c1nc(CC#N)[nH]c(=O)c1C2c1ccc(F)cc1 (stereo not given) | 0.662 | > 100 | 0.976 | 0.864 | 0.6 | – | – | – | – | –
4 | CC1(C)CC(=O)C2=C(C1)N(c1ccc(S(N)(=O)=O)cc1)c1nc(CCl)[nH]c(=O)c1C2c1ccc(F)cc1 (stereo not given) | 0.784 | > 100 | 0.984 | 0.77 | 0.768 | – | – | – | – | –
5 | CC1(C)CC(=O)C2=C(C1)N(c1ccc(S(N)(=O)=O)cc1)c1nc[nH]c(=O)c1C2c1ccc(F)cc1 (stereo not given) | 0.499 | 77.1 | 0.934 | 0.757 | 0.447 | – | – | – | – | –
6 | CC1(C)CC(=O)C2=C(C1)N(c1ccc(S(N)(=O)=O)cc1)c1nc[nH]c(=S)c1C2c1ccc(F)cc1 (stereo not given) | 0.686 | > 100 | 0.99 | 0.901 | 0.608 | – | – | – | – | –
7 | CC1(C)CC(=O)C2=C(C1)N(c1ccc(S(N)(=O)=O)cc1)C(NC(=O)CCl)=C(C#N)C2c1ccc(F)cc1 (stereo not given) | 0.45 | 70.8 | 0.885 | 0.7 | 0.43 | – | – | – | – | –
8 | CC1(C)CC(=O)C2=C(C1)N(c1ccc(S(N)(=O)=O)cc1)C(N)=C(C#N)C2c1ccc(F)cc1 (stereo not given) | 0.427 | 71.8 | 0.855 | 0.562 | 0.482 | – | – | – | – | –
9 | CC1(C)CC(=O)C2=C(C1)N(c1ccc(S(N)(=O)=O)cc1)c1ncnc(N)c1C2c1ccc(F)cc1 (stereo not given) | 0.311 | 52.6 | 0.795 | 0.448 | 0.381 | 0.163 | 0.347 | 0.51 | 28.5 | 0.222
10 | CC1(C)CC(=O)C2=C(C1)N(c1ccc(S(N)(=O)=O)cc1)C(N)=C(C(N)=O)C2c1ccc(F)cc1 (stereo not given) | 0.409 | 75.2 | 0.906 | 0.711 | 0.493 | – | – | – | – | –
11 | Cc1nc2c(c(=O)[nH]1)C(c1ccc(F)cc1)C1=C(CC(C)(C)CC1=O)N2c1ccc(S(N)(=O)=O)cc1 (stereo not given) | 0.494 | 69.8 | 0.768 | 0.654 | 0.425 | – | – | – | – | –
12 | CC1(C)CC(=O)C2=C(C1)N(c1ccc(S(N)(=O)=O)cc1)C(N)=C(C1=NCCN1)C2c1ccc(F)cc1 (stereo not given) | 0.423 | 87 | 0.873 | 0.679 | 0.581 | – | – | – | – | –
13 | CCNC(=S)NC1=C(C#N)C(c2ccc(F)cc2)C2=C(CC(C)(C)CC2=O)N1c1ccc(S(N)(=O)=O)cc1 (stereo not given) | 0.642 | > 100 | 0.924 | 0.852 | 0.609 | – | – | – | – | –
14 | CCOC(=O)Cn1cnc2c(c1=O)C(c1ccc(F)cc1)C1=C(CC(C)(C)CC1=O)N2c1ccc(S(N)(=O)=O)cc1 (stereo not given) | 0.686 | > 100 | 0.969 | 0.898 | 0.572 | – | – | – | – | –
15 | CC(=O)CC(=O)NC1=C(C#N)C(c2ccc(F)cc2)C2=C(CC(C)(C)CC2=O)N1c1ccc(S(N)(=O)=O)cc1 (stereo not given) | 0.76 | > 100 | 0.919 | 0.905 | 0.663 | – | – | – | – | –
16 | CC(=O)N(C(C)=O)C1=C(C#N)C(c2ccc(F)cc2)C2=C(CC(C)(C)CC2=O)N1c1ccc(S(N)(=O)=O)cc1 (stereo not given) | 0.455 | 79.7 | 0.987 | 0.733 | 0.498 | – | – | – | – | –
17 | CC1(C)CC(=O)C2=C(C1)N(c1ccc(S(N)(=O)=O)cc1)c1ncnc(NN)c1C2c1ccc(F)cc1 (stereo not given) | 0.478 | 81.2 | 0.959 | 0.652 | 0.518 | – | – | – | – | –
18 | CC1(C)CC(=O)C2=C(C1)N(c1ccc(S(N)(=O)=O)cc1)c1ncnc(Cl)c1C2c1ccc(F)cc1 (stereo not given) | 0.635 | 85.6 | 0.909 | 0.785 | 0.457 | – | – | – | – | –
19 | CCO/C=N/C1=C(C#N)C(c2ccc(F)cc2)C2=C(CC(C)(C)CC2=O)N1c1ccc(S(N)(=O)=O)cc1 (stereo not given) | 0.477 | 67.3 | 0.904 | 0.62 | 0.401 | 0.199 | 0.428 | 0.677 | 36 | 0.156
20 | CC1(C)CC(=O)C2=C(C1)N(c1ccc(S(N)(=O)=O)cc1)C(N1C(=O)CCC1=O)=C(C#N)C2c1ccc(F)cc1 (stereo not given) | 0.678 | 94.1 | 0.933 | 0.885 | 0.488 | – | – | – | – | –
